Laboratory results published in ChEMBL document CHEMBL1157278, “A new sesquiterpene as an antifouling substance from a palauan marine sponge, dysidea herbacea” (1999).
Calls of active or inactive are those of the source. The rule behind the calls is not given here.

Assays:
Mytilus edulis [1] = experiment: Antifouling activity in Mytilus edulis galloprovincialis assessed as foot contraction at <10 ppm; format: functional, organism-based
Mytilus edulis [2] = experiment: Antifouling activity in Mytilus edulis galloprovincialis assessed as foot contraction at 100 ppm; format: functional

## C=C1[C@@H](C)C[C@H]2C[C@]1(C)CCC1=CC(=O)O[C@@]12O
Mytilus edulis [1]
  Activity: inactive
Mytilus edulis [2]
  Activity: 100%
